The test system of assay [1] is HL-60 cells. Nature of the assay: Binding property of monoclonal antibodies (MAS 072 anti-human monocyte, OKT 9 anti-human transferrin receptor) to treated HL-60 cells, indirect fluorescent antibody technique, FACS. The format is cell-based. The note with it: for Binding property of monoclonal antibody MAS072 (%): anti-human monocyte antibody, control 17.0; for Binding property of monoclonal antibody OKT9 (%): anti-human transferrin receptor antibody, control 95.7. How it is done:
HL-60 cells wre treated with the agent as described above, and then stained by indirect fluorescent antibody technique using monoclonal antibodies [MAS 072 (Sera-lab) anti-human monocyte and OKT 9 (Ortho-mune) anti-human transferrin receptor] and a fluorescent antibody [FITC-anti-mouse IgG (Miles)], and the resulting fluorescence intensity was determined by FACS to obtain the binding property of the monoclonal antibody in terms of a percentage.

The subject of assay [2] is HL-60 cells. Description: NBT reduction of HL-60 cells after treatment (TPA stimulation, microscopy). Format: cell-based, human. The note with it: HL-60 treated 4 days, percentage of NBT reduction-positive cells of 200 cells. As for the experimental part: Thereafter, the cells were smeared onto a slide glass, subjected to giemsa staining, and the coloration of cells was examined under a microscope. The number of colored cells was measured for 200 cells, and the results were expressed in terms of the percentage of NBT reduction- positive cells.

The test system of assay [3] is HL-60 cells. Description: Proliferation-suppression rate of HL-60 cells (Coulter counter). Format: cell-based. The note with it: Homo sapiens, 96 h, HL-60, 4 days, relative to untreated group; for inhibition at 0.01 µM: 1x10^-8 M (column of 1α, 25-(OH)2D3 printed 1x10^8); for inhibition at 0.003 µM: 3x10^-9 M. How it is done: An HL-60 cell fluid adjusted to a concentration of 5 x 10^4 cells/ml was incorporated with each of the agents to be tested and cultivated in a carbon dioxide incubator at 37°C for 4 days. After the cultivation, the number of cells was measured by means of a Coulter counter. The percentage of the number thus measured relative to the number of cells in an untreated group was calculated, from which the proliferation-suppression rate was obtained.

The mark [4] stands for this setting: 1x10^-8 M (column of 1α, 25-(OH)2D3 printed 1x10^8).

Regarding `C=C1C(=CC=C2CCCC3(C)C2CCC3C(C)CCCC(C)(C)O)CC(O)CC1O` (stereo not drawn) [1α, 25-(OH)2D3, 1α, 25-dihydroxyvitamin D3], in the assay on HL-60 cells [1] (setting [4]), the “Binding property of monoclonal antibody MAS072 (%)” value is 55.8% and the “Binding property of monoclonal antibody OKT9 (%)” value amounted to 22.6%. In addition, the “Binding property of monoclonal antibody OKT9 (%)” value with HL-60 cells [1] (3x10^-9 M) is 61.5%. Also, the “NBT reduction rate (%)” value in the assay with HL-60 cells [2] (setting [4]) came to 87.0%. Also, in the assay with HL-60 cells [2] (3x10^-9 M), the “NBT reduction rate (%)” value came to 48.5%. In the assay with HL-60 cells [3], the inhibition at 0.01 µM is 66% and 0.003 µM produced 47.2% inhibition.

For `C=C1C(=CC=C2CCCC3(C)C2CCC3C(C)CCCC(C(F)(F)F)C(F)(F)F)CC(O)CC1O` (centres unmarked) [Compound A, 26,26,26,27,27,27-hexafluoro-la-hydroxyvitamin D3], in the assay on HL-60 cells [1] (setting [4]), the “Binding property of monoclonal antibody MAS072 (%)” value is recorded as 79.0% and the “Binding property of monoclonal antibody OKT9 (%)” value is given as 11.1%. For the same molecule, the “Binding property of monoclonal antibody OKT9 (%)” value with HL-60 cells [1] (3x10^-9 M) is given as 16.7%. For the same molecule, the “NBT reduction rate (%)” value in the assay on HL-60 cells [2] (setting [4]) is recorded as 91.5%. Also, the “NBT reduction rate (%)” value in the assay on HL-60 cells [2] (3x10^-9 M) worked out at 77.0%. Also, in the assay on HL-60 cells [3], the inhibition at 0.01 µM amounted to 74.9% and the inhibition at 0.003 µM came to 58.5%.

For the origin of these results see patent publication EP0205025A1, “Fluorine derivatives of vitamin D3 and cell differentiation-inducing agents containing the same as an active ingredient” (SUMITOMO PHARMACEUTICALS COMPANY, LIMITED, priority 1985, dated 1986).
